Experiments:
Type in all cases: biochemical
[1] = molecular target: T1, CYP1A2 (Homo sapiens, UniProt P05177); assay: Kinetic characterization of inhibition of CYP1A2-mediated POD in human liver microsomes; parameters: tissue XenoTech XTreme 200; host or cells: pooled human liver microsomes; conditions: HLMs; for Type of inhibition of CYP1A2-mediated POD: Lineweaver-Burk and Dixon plots
T1 sequence (P05177 1-516): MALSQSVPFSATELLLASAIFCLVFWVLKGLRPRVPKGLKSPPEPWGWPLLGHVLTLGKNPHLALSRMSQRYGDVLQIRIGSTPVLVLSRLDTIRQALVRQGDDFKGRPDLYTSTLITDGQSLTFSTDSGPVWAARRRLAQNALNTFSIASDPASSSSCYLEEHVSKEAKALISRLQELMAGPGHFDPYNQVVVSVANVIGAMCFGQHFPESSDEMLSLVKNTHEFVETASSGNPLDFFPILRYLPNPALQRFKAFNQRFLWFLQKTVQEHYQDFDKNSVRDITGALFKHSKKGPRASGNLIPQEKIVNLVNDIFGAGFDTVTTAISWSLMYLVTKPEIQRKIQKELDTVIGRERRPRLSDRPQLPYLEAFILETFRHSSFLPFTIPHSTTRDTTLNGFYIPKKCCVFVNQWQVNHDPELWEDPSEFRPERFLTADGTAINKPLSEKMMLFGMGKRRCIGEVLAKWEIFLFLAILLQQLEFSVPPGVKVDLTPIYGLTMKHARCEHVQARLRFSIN
Description: (§1) The other conditions were similar to those used in the P450 inhibition study, as described earlier.
(§2) WinNonlin software (Pharsight, Mountain View, CA, USA) was used to calculate IC50 values. Based on Lineweaver–Burk double reciprocal plots, secondary plots of Lineweaver–Burk plots versus obtusifolin concentrations, and visual inspection of Dixon plots, the type of inhibition and apparent kinetic parameters for inhibitory activity (Ki) were estimated.

[2] = molecular target: T1, CYP1A2; assay: Time-dependent inhibition assay (IC50 shift) of CYP1A2-mediated POD in pHLMs; parameters: tissue XenoTech XTreme 200; host or cells: pooled human liver microsomes
Description: The IC50 shift approach was applied to assess the time-dependent inhibition of CYP1A2 by obtusifolin [18]. For 30 min, obtusifolin was pre-incubated with pHLMs in the presence of NGS. The reaction was started with 100 µM phenacetin and then incubated for 15 min. Following reaction termination and centrifugation, aliquots of the supernatants were subjected to LC-MS/MS analysis.

[3] = molecular target: T2, recombinant CYP1A2 (rCYP1A2) (Homo sapiens, UniProt P05177); assay: Inhibition of CYP1A2-mediated POD in recombinant CYP1A2; conditions: rCYP1A2 10 pmol/mL
T2 construct: purchased SPMED (Busan, Republic of Korea)
T2 sequence (P05177 1-516): T1 sequence (P05177 1-516)
Description: as §1, §2

[4] = test system: CYP1A1 and CYP1A2; assay: CYP1A1- and CYP1A2-mediated POD and EROD with recombinant enzymes (summary); conditions: human, summary bound
Description: as §1
(§3) The inhibitory effects of obtusifolin on the CYP1A-mediated ethoxyresorufin O-deethylation (EROD) activity of rCYP1A1 and rCYP1A2 enzymes (10 pmol/mL) were investigated. […] The other conditions, except for the incubation time (20 min), were similar to those used in the P450 inhibition study, as described earlier.

[5] = molecular target: T3, CYP2B6 (Homo sapiens, UniProt P20813); assay: Bupropion 6-hydroxylation in human liver microsomes; conditions: HLMs
T3 construct: Mixtures of pooled HLM, P450 substrates, and obtusifolin; tissue XenoTech XTreme 200; host or cells: pooled human liver microsomes
T3 sequence (P20813 1-491): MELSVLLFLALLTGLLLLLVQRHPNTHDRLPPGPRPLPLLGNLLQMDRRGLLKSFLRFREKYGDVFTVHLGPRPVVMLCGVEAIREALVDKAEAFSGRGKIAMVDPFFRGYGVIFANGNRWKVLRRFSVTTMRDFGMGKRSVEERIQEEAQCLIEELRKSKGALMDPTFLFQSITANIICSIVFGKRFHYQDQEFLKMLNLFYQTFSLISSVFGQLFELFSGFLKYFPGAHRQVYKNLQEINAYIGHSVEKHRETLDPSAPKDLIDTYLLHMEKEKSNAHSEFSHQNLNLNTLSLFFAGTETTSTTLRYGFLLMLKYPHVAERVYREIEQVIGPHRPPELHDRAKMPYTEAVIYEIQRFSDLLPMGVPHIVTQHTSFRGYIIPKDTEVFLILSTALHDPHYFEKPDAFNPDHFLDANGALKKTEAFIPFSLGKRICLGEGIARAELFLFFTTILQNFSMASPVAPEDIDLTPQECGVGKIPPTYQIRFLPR
Description: (§5) The following P450 isoform-specific substrates were used: coumarin (CYP2A6); bupropion (CYP2B6); amodiaquine (CYP2C8); tolbutamide (CYP2C9); omeprazole (CYP2C19); dextromethorphan (CYP2D6); chlorzoxazone (CYP2E1); and midazolam (CYP3A). […] NGS was introduced to start the reaction, which was followed by an additional incubation (15 min). Following reaction termination, aliquots of the supernatants were analyzed with LC-MS/MS.
(§6) Reverse phase column (Kinetex XB-C18, 100 × 2.10 mm; Phenomenex, Torrance, CA, USA) and triple-quadrupole mass spectrometer (LCMS 8060, Shimadzu, Kyoto, Japan) with an ultra high-performance LC system (Nexera X2, Shimadzu) analyze all the metabolites. […] For each metabolite, quantitation was carried out in selected reaction monitoring (SRM) mode using the following precursor-to-product ion transition: m/z 152 > 110 for acetaminophen (CYP1A2), m/z 214 > 186 for resorufin (CYP1A1 and CYP1A2), m/z 163 > 107 for 7-hydroxycoumarin (CYP2A6), m/z 256 > 238 for 6-hydroxybupropion (CYP2B6), m/z 328 > 283 for N-desethylamodiaquine (CYP2C8), m/z 287 > 89 for 5-hydroxytolbutamide (CYP2C9), m/z 362 > 214 for 4-hydroxyomeprazole (CYP2C9), m/z 258 > 157 for dextrorphan (CYP2D6), m/z 184 > 120 for 6-hydroxychlorzoxazone (CYP2E1), m/z 342 > 203 for 1′-hydroxymidazolam (CYP3A), and m/z 295 > 100 for trimipramine (IS) [23, 24].

[6] = molecular target: T4, rCYP1A2 (Homo sapiens, UniProt P05177); assay: Recombinant CYP1A2 inhibition with 9-cis-retinal as substrate; conditions: substrate 9-cis-retinal
T4 construct: purchased SPMED (Busan, Republic of Korea)
T4 sequence (P05177 1-516): T1 sequence (P05177 1-516)
Description: (§4) Table 5 Inhibitory effects (IC50) of obtusifolin against recombinant CYP1A1 and CYP1A2. | column: IC50 (μM)

[7] = molecular target: T5, rCYP1A1 (Homo sapiens, UniProt P04798); assay: Recombinant CYP1A1 inhibition with 9-cis-retinal as substrate; conditions: substrate 9-cis-retinal
T5 construct: purchased SPMED (Busan, Republic of Korea)
T5 sequence (P04798 1-512): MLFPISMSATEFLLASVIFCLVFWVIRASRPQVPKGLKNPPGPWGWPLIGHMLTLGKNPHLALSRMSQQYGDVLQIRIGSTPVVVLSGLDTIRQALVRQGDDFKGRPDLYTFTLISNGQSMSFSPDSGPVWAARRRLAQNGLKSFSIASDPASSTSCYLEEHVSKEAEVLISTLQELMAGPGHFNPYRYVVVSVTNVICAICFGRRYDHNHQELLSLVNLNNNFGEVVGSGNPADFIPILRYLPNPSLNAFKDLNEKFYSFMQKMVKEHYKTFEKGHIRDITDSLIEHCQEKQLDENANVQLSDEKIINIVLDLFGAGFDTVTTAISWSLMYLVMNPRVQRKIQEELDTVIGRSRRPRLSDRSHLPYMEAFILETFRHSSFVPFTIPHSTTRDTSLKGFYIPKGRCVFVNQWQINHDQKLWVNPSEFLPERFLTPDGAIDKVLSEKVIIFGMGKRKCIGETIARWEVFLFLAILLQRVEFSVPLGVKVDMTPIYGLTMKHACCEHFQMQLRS
Description: as §4

[8] = molecular target: T5, rCYP1A1; assay: Ethoxyresorufin O-deethylation (EROD) in recombinant CYP1A1; conditions: rCYP1A1 10 pmol/mL, 7-ethoxyresorufin 2 µM, 20 min; read-out: IC50, CYP1A1-mediated EROD
Description: as §3

[9] = molecular target: T6, CYP2E1 (Homo sapiens, UniProt P05181); assay: biochemical
T6 construct: Mixtures of pooled HLM, P450 substrates, and obtusifolin; tissue XenoTech XTreme 200; host or cells: pooled human liver microsomes
Description: as §5, §6

[10] = molecular target: T5, rCYP1A1; assay: Phenacetin O-deethylation (POD) in recombinant CYP1A1

T6 sequence (P05181 whole entry): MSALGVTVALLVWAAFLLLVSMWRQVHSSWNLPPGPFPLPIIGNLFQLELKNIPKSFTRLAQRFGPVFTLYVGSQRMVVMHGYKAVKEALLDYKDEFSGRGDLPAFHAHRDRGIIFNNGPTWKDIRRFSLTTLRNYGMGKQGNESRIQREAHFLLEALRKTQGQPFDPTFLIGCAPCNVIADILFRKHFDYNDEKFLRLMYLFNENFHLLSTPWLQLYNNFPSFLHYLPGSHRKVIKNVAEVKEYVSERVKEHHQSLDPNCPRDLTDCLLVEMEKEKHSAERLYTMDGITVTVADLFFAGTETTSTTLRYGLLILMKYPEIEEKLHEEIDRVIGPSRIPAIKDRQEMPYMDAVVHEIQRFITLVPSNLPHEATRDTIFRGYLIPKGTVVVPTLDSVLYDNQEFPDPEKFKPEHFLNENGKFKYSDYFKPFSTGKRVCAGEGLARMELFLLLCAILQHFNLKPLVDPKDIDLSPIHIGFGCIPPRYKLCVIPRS

For `COc1c(O)c(C)cc2c1C(=O)c1c(O)cccc1C2=O` [Obtusifolin, obtusifolin], the Ki ([1]; phenacetin 20, 50, 100 µM, read-out: Ki, CYP1A2-mediated phenacetin O-deethylation) was 110 ± 20 nM, the “Type of inhibition of CYP1A2-mediated POD” value [1] was “competitive” and the “Type of inhibition of CYP1A2-mediated POD” value ([1]; listed as obtusifolin) was “competitive inhibition”. The IC50 ([2]; 30 min preincubation with pHLMs and NGS, phenacetin 100 µM) was 130 nM, the “Time dependence of CYP1A2 inhibition” value ([2]; IC50 shift approach) was “time-independent inhibition” and the IC50 shift at 15 min ([2]; human, pooled human liver microsomes, probe phenacetin (100 µM), 30 min preincubation with NGS vs without, pHLMs) was 1.46. The IC50 ([3]; phenacetin, read-out: IC50, CYP1A2-mediated phenacetin O-deethylation) was 370 ± 110 nM, the Ki ([3]; read-out: Ki, CYP1A2-mediated phenacetin O-deethylation) was 210 ± 53 nM and the IC50 [4] was < 570 nM. For the same compound, the IC50 [5] was > 50000 nM, the IC50 [6] was 150 ± 30 nM and the IC50 [7] was > 10000 nM. For the same compound, the IC50 [8] was 390 ± 60 nM, the IC50 [9] was > 50000 nM and the inhibition at 15 min, 0.5 µM ([9]; human, microsomes) was 30.7%. The “Selectivity for rCYP1A1 over rCYP1A2” value ([10]; CYP1A-mediated POD activity) was “over six-fold” and the IC50 ([10]; substrate phenacetin (POD)) was 60 ± 20 nM.

— article PMC9786103, “Potent and Selective Inhibition of CYP1A2 Enzyme by Obtusifolin and Its Chemopreventive Effects” (Pharmaceutics, 2022)
